# In US20240261301A1, “COMPOSITION COMPRISING INOTODIOL FOR PREVENTION OR TREATMENT OF MUSCULAR DISEASE” (ANIMUSCURE INC., priority 2021, published 2024):
# How the values were obtained:
# [1] = test system: ATPSA, MTCO1, and NDUF88; assay: Mitochondrial activity markers (T-OxPHOS immunoblotting) in C2C12 myoblasts; format: cell-based, mouse; settings: inotodiol at each concentration
# Method: (§1) Cells were seeded into the cell culture medium (GM), and cultured for 24 hours. Thereafter, the differentiation medium (DM) was treated with DMSO and inotodiol (0.1, 0.5, 1.0, and 10 μM) at different concentrations, and differentiation was induced for 2 to 3 days.
# To induce the differentiation of C2C12 myoblasts in the same manner as in Example 1 and check mitochondrial activity, the expression characteristics of a T-OxPHOS antibody mixed with ATPSA, MTCO1, and NDUF88 were confirmed through immunoblotting. For each of the proteins included in the T-OxPHOS antibody, ATPSA is a constituent protein of ATP synthase that contributes to the ATP synthesis in mitochondria, MTCO1 is associated with the oxidase activity of cytochrome-c, which is a component of the electron transport system in the inner membrane of mitochondria, and NDUF 88 encodes a subunit of NADH:ubiquinone oxidoreductase (Complex 1), which is the first enzyme complex in the mitochondrial electron transport system.
# [2] = test system: normal mice; assay: Long-term (2 months) inotodiol administration to normal mice; format: in vivo, mouse
# Method: For normal mice in which the muscle damage or muscle atrophy was not induced, an experiment was conducted to determine whether there was an effect of increasing muscle mass and muscle strength when inotodiol was administered. For the mice to which inotodiol was administered for 2 months, an experiment was conducted to measure a change in muscle mass and muscle strength of hindlimb muscles after the administration of inotodiol (a grip test).
# [3] = test system: mouse model in which myoatrophy is induced by DEX; assay: Myotube atrophy in myoatrophy-induced (DEX) mouse model; format: in vivo; settings: DEX (dexamethasone 20 mg/kg) model
# Method: Experimental animals were grouped into 10 animals having a similar body weight, and dexamethasone was administered at a dose of 20 mg/kg to one group to induce […].
# For the myoatrophy mouse model of Example 3, the effects of alleviating and recovering myotube atrophy were determined when inotodiol was administered.
# [4] = test system: PGC-1α; assay: PGC-1α mRNA expression by qRT-PCR in C2C12 cells; format: cell-based, mouse; settings: differentiating C2C12, qRT-PCR, normalized to 18s rRNA, vs control
# Method: as §1
# The C2C12 cells whose differentiation was induced in Example 1 were lysed using an Easy-spin Total RNA Extraction kit, and chloroform was added thereto. Then, the C2C12 cells were centrifuged. After the supernatant was separated, the same volume of isopropanol was added and bound to the cells. After centrifugation, the cells were washed with 70% EtOH mixed with DEPC water, and the concentration of RNA was quantified by adding 20 to 50 μL of a DEPC solution. RNA was reverse-transcribed using a PrimeScript cDNA synthesis kit to synthesize cDNA. Then, the gene expression was analyzed by qRT-PCR in a real-time PCR system using SYBR Premix EX Taq. Fold changes in gene expression were normalized against the expression of ribosomal gene 18s rRNA.
# [5] = test system: PGC-1α promoter; assay: PGC-1α reporter (luciferase) assay; format: cell-based, mouse
# Method: Immediately after cells were seeded at a density of 1×10^4 cells/well in a 96-well culture plate, the cells were transfected by treating the cells with PGC-1α (DNA) and a plasmid at a ratio of [150 ng/10 μL]+[0.3 μL/10 μL] per well. […] After 24 hours of drug treatment, the cells were lysed in 30 μL of a passive lysis buffer (Promega) per well, and the dissolved cell solution was transferred to a plate for luminometer reading. Then, an equal amount of luciferin, which is a substrate of luciferase, was subjected to an enzymatic reaction to determine the degree of luminescence. The measured values were standardized for each well and plate, and expressed as a relative ratio using the measured values in the wells treated with DMSO, which is a solvent of the compound, as the control. The expression level of luciferase in the PGC-1α reporter cell line depends on the stimulation received by a PGC-1α promoter. That is, if the compound is a PGC-1α expression inducer, it stimulates the PGC-1a promoter to increase the expression of luciferase, and if the compound is a PGC-1α expression inhibitor, luciferase expression decreases.
# [6] = test system: C2C12 cells; assay: Myoblast differentiation of C2C12 cells (MHC immunostaining and immunoblot); format: cell-based, mouse
# Method: The C2C12 cells were cultured in a general cell culture medium and a differentiation medium, respectively. DMEM supplemented with 15% fetal bovine serum was used as the normal cell culture medium (i.e., a growth medium (GM)), and DMEM supplemented with 2% horse serum was used as the differentiation medium (DM).
# The C2C12 cells whose differentiation was induced in Example 1 were washed with 1× PBS, and then fixed with 3.7% paraformaldehyde at room temperature. Thereafter, a permeabilization buffer was added thereto, and reacted at room temperature. Unspecific antibody binding was inhibited by reacting with PBST (a blocking buffer) containing 3% BSA and PBS containing 0.1% Tween 20. A primary antibody against a myosin heavy chain (MHC) was diluted 1:500 in a blocking buffer, added, and reacted at room temperature. A secondary antibody diluted 1:5000 in a blocking buffer was added, and reacted at room temperature.
# The C2C12 cells whose differentiation was induced in Example 1 were collected, lysed by adding a lysis buffer (20 mM Tris-HCl, pH 8.0, 150 mM NaCl, 1% Triton X, a proteinase inhibitor), and then the cell lysis sample was quantified. Thereafter, the same amount of protein was subjected to SDS-PAGE electrophoresis, and transferred to a PVDF membrane. […]
# [7] = test system: muscle stem cells; assay: Muscle stem cell proliferation (BrdU analysis) after CTX muscle damage; format: in vivo, mouse
# Method: To induce muscle damage, CTX was injected into the mice to which inotodiol was administered once a day for 7 days. Then, it was determined through BrdU analysis whether or not the proliferation of muscle stem cells was enhanced (FIG. 10).
# [8] = test system: mouse model in which muscle damage is induced by CTX; settings: CTX mice
# Method: Ten 5-month-old C57BL/6 male mice were used as experimental animals.
# However, each of the weights of the hindlimb muscle tissues, such as the tibialis anterior muscle (TA), extensor digitorum longus muscle (EDL), soleus muscle (Sol), and gastrocnemius muscle (Gas), of the experimental animals was measured.
# Hematoxylin & eosin staining (H&E staining) was performed using the TA muscle isolated from the tissue of each of the experimental animals. Frozen sections fixed with 4% paraformaldehyde were stained with hematoxylin and stained with eosin for contrast staining, mounted, and observed under an optical microscope.
# The relative mRNA expression levels were compared for each muscle type of Myh7 (MHCI), Myh2 (MHCIIa), Myh4 (MHCIIb), and Myh1 (MHCIIx).
# [9] = test system: muscle fibrosis; assay: Muscle fibrosis in CTX muscle damage mouse model; format: in vivo; settings: then inotodiol
# [10] = test system: high-fat diet mice; assay: Exercise capacity in high-fat diet mouse model (treadmill, grip test); format: in vivo; settings: high-fat diet-fed mice
# Method: When inotodiol was administered to high-fat diet mice, the effects on muscle strength and exercise performance ability were determined. After inotodiol was administered to a high-fat diet-fed mouse model, the exercise duration and movement distance were measured through a treadmill experiment. […] As a result of the grip test, it was also confirmed that the high-fat diet mouse model had lower muscle strength than the mean muscle strength.
# [11] = 2 months administration, vs control
# [12] = inotodiol once a day for 7 days, then CTX
# [13] = 300 μg/kg oral, 21 days after CTX
structure (smiles),measurement,setting,value
CC(C)=CC[C@@H](O)[C@@H](C)[C@H]1CC[C@@]2(C)C3=C(CC[C@]12C)[C@@]1(C)CC[C@H](O)C(C)(C)C1CC3 (some centres unmarked) [inotodiol],"expression level of mitochondrial proteins (ATPSA, MTCO1, NDUF88)",[1],increased in proportion to the concentration of inotodiol
same,hindlimb muscle mass,[2]; [11],increased
same,muscle strength (grip test),[2]; [11],also increased
same,weight of fat relative to weight gain,[2]; long-term administration,increased relatively less
same,weight-to-muscle ratio,[2]; long-term administration,higher than that of the non-administered group
same,expression levels of PGC-1α and mitochondrial-related genes in muscle,"[2]; long-term administration, vs control",increased compared to the control
same,cross-sectional area of myotubes,[3],restored to the same level as that of the normal group
same,size of muscles and muscle fibers,[3],increased
same,mRNA expression for PGC-1α,[4],significantly increased compared to the control
same,luciferase activity for PGC-1α,"[5]; inotodiol 0.1, 0.5, 1.0 μM, 24 h, relative to DMSO",increased in an inotodiol concentration-dependent manner
same,luciferase activity for PGC-1α compared with positive control,[5]; vs 0.5 mM AICAR positive control,higher than that of 0.5 mM AICAR
same,formation of multinucleated myotubes,"[6]; C2C12, inotodiol 0.1, 0.5, 1.0, 10 μM, immunostaining on day 2 of differentiation",increased in a concentration-dependent manner
same,expression level of MHC (differentiation marker),"[6]; C2C12, inotodiol at different concentrations, immunoblot, vs DMSO-treated control",increased in a concentration-dependent manner
same,expression of genes involved in muscle growth,[7]; CTX muscle damage,effect of enhancing the expression of genes involved in muscle growth was confirmed
same,relative mRNA expression levels of genes involved in the cell cycle,[7]; CTX muscle damage,increased
same,expression level of BrdU in muscle tissues,[7]; [12],increased
same,expression levels of Pax7 and Ki67 and expression ratio of Ki67 to Pax7,[7]; [12],increased
same,"increase in muscle mass, extensor digitorum longus muscle (EDL), vs control",[8]; [13],18.9%
same,"increase in muscle mass, gastrocnemius muscle (Gas), vs control",[8]; [13],9.5%
same,"increase in muscle mass, soleus muscle (Sol), vs control",[8]; [13],5.2%
same,"increase in muscle mass, tibialis anterior muscle (TA), vs control",[8]; [13],16.0%
same,expression of Myh2 (MHCIIa),[8]; 21 days after muscle damage,tended to greatly increase
same,"relative mRNA expression levels of muscle fiber types Myh7, Myh2, Myh4, Myh1",[8]; 21 days after muscle damage,no significant difference
same,blood glucose,"[8]; day 21 after induction of muscle damage, vs control",blood glucose-lowering effect was confirmed
same,increase in grip strength vs control,"[8]; day 21 after muscle damage, grip strength test",approximately 6.8%
same,change in body weight,"[8]; inotodiol 300 μg/kg oral, 21 days after CTX",no change in body weight was observed
same,increase in muscle fiber cross-sectional area (CSA) of TA muscle vs control,[8]; laminin staining,89.4%
same,muscle regeneration (H&E staining of TA muscle),[8]; vs control,significant muscle regeneration effect
same,area of the muscle tissue in which fibrosis progressed,[9],reduced
same,muscle fibrosis in muscle tissue,[9],fibrosis was ameliorated
same,"exercise capacity (exercise duration and movement distance, treadmill)",[10],recovered exercise capacity to the level of the normal control
same,muscle strength (grip test),[10],muscle strength was improved
